Structures can show the parent of a compound that is named as a salt.
Experiments:
[1] = target: T1, p110δ (Homo sapiens, UniProt O00329); assay: Biochemical PI3K inhibition assay, p110δ; conditions: for IC50: 10 μM ATP, two hours
T1 construct: His-tag; made in house; host or cells: Sf9 insect cells (baculovirus)
Text: (§1) cDNA clones of PIK3CA, PIK3CB and PIK3CG were obtained from Origene (Rockville, MD, USA). PIK3CD was generously provided by Novartis Pharmaceuticals. The cDNA clones were sub-cloned into pFastBac His-Tag (Invitrogen, Carlsbad, CA, USA) and baculovirus clones were generated by the Bac-to-Bac expression system (Invitrogen). p110α, p110β and p110δ were co-expressed in Sf9 insect cells (Invitrogen) with a nSH2-iSH2 fragment of the regulatory subunit p85 comprising AA residues 322 to 600 [4]. p110γ was expressed without a regulatory subunit. Sf9 cells were lysed in a buffer containing 50 mM sodium phosphate, pH 8.0, 400 mM NaCl, 5% glycerol, 1% Triton X-100, 10 mM 2-mercaptoethanol, 1 mM orthovanadate, 10 mM imidazole, and sonicated on ice for 1 minute. Proteins were purified by adding Ni-NTA Superflow beads (Qiagen, Valencia, CA, USA) to the lysate and subsequent rolling for 30 min at 4°C. Beads were washed twice with 50 mM phosphate buffer, pH 8.0, 0.5 M NaCl, 50 mM Imidazole, 2 mM DTT and eluted in the same buffer but with 200 mM imidazole. Purified PI3K's were mixed 1:1 with glycerol and stored at -20°C.
(§2) J-series inhibitors were dissolved, serial diluted in DMSO and deposited into 96 well plates at a final DMSO concentration of 1%. We used a novel assay to determine their potency and selectivity. In brief, micelles of 2.5 μg L-a-Phosphatidylinositol and 2.5 μg 1,2-Diacyl-sn-glycero-3-phospho-L-serine were formed by sonication, mixed with the individual PI3K isoforms and added to the drug dilutions in a reaction buffer containing 10 mM HEPES, 25 mM NaCl, 0.125 μg/μl BSA, and 2 mM BME (final concentrations). Reactions were timed after the addition of 10 μM ATP with 40 μCi/ml γ-32P-ATP (PerkinElmer, Waltham, MA, USA) and 2 mM MgCl2 (all final concentrations). The reactions were terminated after two hours by the addition of 2 N HCl and the lipids extracted with 1:1 MetOH/Chloroform. Radio-labeled phosphatidyl-inositol-3-phosphate in the extracted organic fraction was quantified after the addition of Microscint O (PerkinElmer) using a TopCount 96 well plate scintillation counter (PerkinElmer). IC50 concentrations and inhibition curves were calculated using Prism 5 (GraphPad Software, La Jolla, CA).

[2] = target: T2, p110β (Homo sapiens, UniProt P42338); assay: Biochemical PI3K inhibition assay, p110β; conditions: for IC50: 10 μM ATP, two hours
T2 construct: His-tag; made in house; host or cells: Sf9 insect cells (baculovirus)
T2 sequence (P42338 whole entry): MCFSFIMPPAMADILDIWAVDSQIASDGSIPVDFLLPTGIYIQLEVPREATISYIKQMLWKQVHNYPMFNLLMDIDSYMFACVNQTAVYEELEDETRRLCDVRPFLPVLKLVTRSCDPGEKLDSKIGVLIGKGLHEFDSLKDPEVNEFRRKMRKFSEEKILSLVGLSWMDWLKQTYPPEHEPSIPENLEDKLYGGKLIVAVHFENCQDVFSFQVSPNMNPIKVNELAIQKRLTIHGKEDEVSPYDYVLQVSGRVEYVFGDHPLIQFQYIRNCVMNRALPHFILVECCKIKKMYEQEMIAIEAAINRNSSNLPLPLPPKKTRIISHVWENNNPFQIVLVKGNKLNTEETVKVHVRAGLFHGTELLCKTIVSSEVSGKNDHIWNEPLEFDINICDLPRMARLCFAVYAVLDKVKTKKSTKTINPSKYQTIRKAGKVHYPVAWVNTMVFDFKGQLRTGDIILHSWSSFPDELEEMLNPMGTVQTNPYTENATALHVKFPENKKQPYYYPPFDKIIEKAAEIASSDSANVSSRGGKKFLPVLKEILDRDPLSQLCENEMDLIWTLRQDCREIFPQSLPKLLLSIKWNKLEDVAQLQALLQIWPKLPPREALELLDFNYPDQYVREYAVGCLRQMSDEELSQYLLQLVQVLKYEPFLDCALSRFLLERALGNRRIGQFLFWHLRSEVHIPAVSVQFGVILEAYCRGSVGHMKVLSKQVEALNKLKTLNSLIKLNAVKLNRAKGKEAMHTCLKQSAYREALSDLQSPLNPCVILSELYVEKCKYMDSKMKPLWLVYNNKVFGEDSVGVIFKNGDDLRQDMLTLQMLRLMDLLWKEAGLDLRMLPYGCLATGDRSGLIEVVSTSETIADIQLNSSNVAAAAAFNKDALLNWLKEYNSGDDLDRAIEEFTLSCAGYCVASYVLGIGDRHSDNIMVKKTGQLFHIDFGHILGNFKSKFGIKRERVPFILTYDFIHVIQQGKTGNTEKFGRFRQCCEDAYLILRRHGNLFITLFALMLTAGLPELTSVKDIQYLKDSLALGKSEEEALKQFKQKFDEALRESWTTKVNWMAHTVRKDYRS
T2 sequence (P27986 322-600 partner limits assumed): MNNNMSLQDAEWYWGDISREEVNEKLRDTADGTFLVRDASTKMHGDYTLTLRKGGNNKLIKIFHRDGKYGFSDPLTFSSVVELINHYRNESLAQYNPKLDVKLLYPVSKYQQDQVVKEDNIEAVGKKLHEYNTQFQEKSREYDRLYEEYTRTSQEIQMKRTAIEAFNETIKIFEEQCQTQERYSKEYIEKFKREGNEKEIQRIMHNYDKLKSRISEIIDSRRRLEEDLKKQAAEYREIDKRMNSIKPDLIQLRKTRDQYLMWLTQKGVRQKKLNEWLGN
Text: as §1, §2

[3] = target: T3, p110γ (Homo sapiens, UniProt P48736); assay: Biochemical PI3K inhibition assay, p110γ; conditions: for IC50: 10 μM ATP, two hours, no regulatory subunit
T3 construct: His-tag; made in house; host or cells: Sf9 insect cells (baculovirus)
T3 sequence (P48736 whole entry): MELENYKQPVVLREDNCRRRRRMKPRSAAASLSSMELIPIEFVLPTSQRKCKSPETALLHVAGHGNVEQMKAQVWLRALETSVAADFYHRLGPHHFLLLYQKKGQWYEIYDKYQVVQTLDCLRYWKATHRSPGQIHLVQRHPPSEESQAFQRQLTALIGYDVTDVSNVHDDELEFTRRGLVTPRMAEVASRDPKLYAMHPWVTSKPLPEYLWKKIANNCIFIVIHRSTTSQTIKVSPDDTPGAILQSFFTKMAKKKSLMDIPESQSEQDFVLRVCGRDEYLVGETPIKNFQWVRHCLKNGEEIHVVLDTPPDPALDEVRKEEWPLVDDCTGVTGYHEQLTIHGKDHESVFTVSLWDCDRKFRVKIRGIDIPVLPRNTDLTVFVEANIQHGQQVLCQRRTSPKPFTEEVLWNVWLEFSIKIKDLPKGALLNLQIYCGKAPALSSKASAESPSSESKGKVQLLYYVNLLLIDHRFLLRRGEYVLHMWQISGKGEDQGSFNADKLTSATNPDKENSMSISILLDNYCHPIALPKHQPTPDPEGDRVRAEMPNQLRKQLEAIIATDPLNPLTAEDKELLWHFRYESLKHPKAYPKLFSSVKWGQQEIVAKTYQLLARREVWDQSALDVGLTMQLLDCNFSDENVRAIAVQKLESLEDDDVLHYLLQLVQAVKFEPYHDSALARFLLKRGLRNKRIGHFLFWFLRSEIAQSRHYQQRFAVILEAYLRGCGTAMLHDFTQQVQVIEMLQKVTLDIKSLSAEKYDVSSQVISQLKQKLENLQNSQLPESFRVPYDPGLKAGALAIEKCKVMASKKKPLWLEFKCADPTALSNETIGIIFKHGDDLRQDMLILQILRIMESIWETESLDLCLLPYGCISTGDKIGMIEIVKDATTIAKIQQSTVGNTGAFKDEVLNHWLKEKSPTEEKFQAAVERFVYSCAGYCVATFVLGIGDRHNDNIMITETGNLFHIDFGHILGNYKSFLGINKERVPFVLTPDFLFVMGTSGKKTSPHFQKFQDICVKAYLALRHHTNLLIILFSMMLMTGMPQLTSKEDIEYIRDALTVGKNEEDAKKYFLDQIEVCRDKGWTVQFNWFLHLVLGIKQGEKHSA
Text: as §1, §2

[4] = target: T4, p110α (Homo sapiens, UniProt P42336); assay: Biochemical PI3K inhibition assay, p110α; conditions: for IC50: 10 μM ATP, two hours; for effect of substitution on PI3Kα potency/selectivity (in words): SAR discussion
T4 construct: His-tag; made in house; host or cells: Sf9 insect cells (baculovirus)
T4 sequence (P42336 whole entry): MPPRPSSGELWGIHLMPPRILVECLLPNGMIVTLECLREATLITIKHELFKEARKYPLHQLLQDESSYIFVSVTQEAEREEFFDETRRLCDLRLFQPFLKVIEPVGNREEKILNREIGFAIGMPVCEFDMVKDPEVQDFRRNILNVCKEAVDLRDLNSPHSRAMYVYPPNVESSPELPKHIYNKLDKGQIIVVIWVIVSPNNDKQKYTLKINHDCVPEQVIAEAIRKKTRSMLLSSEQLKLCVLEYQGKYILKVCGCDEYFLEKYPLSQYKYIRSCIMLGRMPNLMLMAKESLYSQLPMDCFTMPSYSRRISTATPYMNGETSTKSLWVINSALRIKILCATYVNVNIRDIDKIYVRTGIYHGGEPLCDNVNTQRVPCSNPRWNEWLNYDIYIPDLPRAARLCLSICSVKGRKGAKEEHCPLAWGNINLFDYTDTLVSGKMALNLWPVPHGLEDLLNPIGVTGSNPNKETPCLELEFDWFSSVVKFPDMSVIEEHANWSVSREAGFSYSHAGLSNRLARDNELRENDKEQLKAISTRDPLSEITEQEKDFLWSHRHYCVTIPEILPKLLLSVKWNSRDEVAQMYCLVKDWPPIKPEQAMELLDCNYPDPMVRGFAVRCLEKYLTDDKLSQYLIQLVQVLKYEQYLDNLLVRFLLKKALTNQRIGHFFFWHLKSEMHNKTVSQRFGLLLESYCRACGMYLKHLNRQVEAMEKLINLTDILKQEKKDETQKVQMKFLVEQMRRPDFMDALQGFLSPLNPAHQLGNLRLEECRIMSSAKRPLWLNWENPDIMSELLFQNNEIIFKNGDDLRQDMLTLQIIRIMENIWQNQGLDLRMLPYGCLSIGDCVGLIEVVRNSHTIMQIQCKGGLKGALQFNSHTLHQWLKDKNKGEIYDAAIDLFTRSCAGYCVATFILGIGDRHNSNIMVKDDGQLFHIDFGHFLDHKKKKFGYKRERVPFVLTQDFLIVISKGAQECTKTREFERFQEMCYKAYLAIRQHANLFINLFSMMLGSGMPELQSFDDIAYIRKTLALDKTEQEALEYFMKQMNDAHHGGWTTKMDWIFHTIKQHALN
T4 sequence (P27986 322-600 partner limits assumed): as the sequence (P27986 322-600 partner limits assumed) above
Procedure: PIK3CD was generously provided by Novartis Pharmaceuticals. […] Sf9 cells were lysed in a buffer containing 50 mM sodium phosphate, pH 8.0, 400 mM NaCl, 5% glycerol, 1% Triton X-100, 10 mM 2-mercaptoethanol, 1 mM orthovanadate, 10 mM imidazole, and sonicated on ice for 1 minute. Proteins were purified by adding Ni-NTA Superflow beads (Qiagen, Valencia, CA, USA) to the lysate and subsequent rolling for 30 min at 4°C. Beads were washed twice with 50 mM phosphate buffer, pH 8.0, 0.5 M NaCl, 50 mM Imidazole, 2 mM DTT and eluted in the same buffer but with 200 mM imidazole. Purified PI3K's were mixed 1:1 with glycerol and stored at -20°C.
as §2, with “In brief, micelles of 2.5 μg L-a-Phosphatidylinositol and 2.5 μg 1,2-Diacyl-sn-glycero-3-phospho-L-serine were formed by sonication, mixed with the individual PI3K isoforms and added to the drug dilutions in a reaction buffer containing 10 mM HEPES, 25 mM NaCl, 0.125 μg/μl BSA, and 2 mM BME (final concentrations).” left out

T1 sequence (O00329 whole entry): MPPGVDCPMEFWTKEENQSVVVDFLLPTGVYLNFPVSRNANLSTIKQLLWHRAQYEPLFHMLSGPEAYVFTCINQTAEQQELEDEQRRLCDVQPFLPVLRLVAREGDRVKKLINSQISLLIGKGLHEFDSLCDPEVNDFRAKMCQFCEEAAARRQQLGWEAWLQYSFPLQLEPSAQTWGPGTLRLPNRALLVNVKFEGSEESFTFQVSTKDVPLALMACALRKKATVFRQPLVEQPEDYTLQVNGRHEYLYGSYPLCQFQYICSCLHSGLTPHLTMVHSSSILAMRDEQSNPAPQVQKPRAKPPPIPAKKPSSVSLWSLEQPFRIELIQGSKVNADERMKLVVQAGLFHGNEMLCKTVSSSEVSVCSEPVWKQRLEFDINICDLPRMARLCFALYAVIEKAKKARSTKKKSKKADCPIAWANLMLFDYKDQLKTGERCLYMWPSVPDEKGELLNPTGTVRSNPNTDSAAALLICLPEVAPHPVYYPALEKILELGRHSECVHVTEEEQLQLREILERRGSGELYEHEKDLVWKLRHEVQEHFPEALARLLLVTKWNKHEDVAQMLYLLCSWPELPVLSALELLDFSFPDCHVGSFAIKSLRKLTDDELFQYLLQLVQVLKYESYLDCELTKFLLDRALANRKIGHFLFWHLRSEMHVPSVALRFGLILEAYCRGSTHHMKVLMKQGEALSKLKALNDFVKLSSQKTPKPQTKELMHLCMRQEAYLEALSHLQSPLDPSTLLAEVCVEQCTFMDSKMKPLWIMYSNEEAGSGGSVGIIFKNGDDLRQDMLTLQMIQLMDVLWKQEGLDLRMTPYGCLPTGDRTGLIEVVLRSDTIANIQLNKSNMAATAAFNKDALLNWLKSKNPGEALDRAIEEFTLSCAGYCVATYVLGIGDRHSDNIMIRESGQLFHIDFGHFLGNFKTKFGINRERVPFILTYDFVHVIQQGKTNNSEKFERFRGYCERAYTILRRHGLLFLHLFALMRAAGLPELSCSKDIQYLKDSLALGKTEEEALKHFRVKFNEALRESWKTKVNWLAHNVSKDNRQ
T1 sequence (P27986 322-600 partner limits assumed): as the sequence (P27986 322-600 partner limits assumed) above

IC50 [1] [nM]	IC50 [2] [nM]	IC50 [3] [nM]	IC50 [4] [nM]	effect of substitution on PI3Kα potency/selectivity (in words) [4]	drop/decrease in inhibitory activity for PI3Kα ([4]; compared to J32)	increase of inhibitory activity for PI3Kα ([4]; compared to J32) [fold]	selectivity against PI3Kδ ([1]; relative to PI3Kα) [fold]	selectivity against PI3Kβ ([2]; relative to PI3Kα)	selectivity against PI3Kγ ([3]; relative to PI3Kα) [fold]	SMILES
173	2000	5120	121	impaired potency						CCN(/N=C/c1cnc2ccc(Br)cn12)S(=O)(=O)c1cc(C(=O)O)ccc1C [J100]
16	75	132	20	decreased selectivity for the latter						CCN(/N=C/c1cnc2ccc(Br)cn12)C(=O)c1cc([N+](=O)[O-])ccc1C [J45]
781	6310	3160	730		6 to 49 fold					Cc1ccc([N+](=O)[O-])cc1S(=O)(=O)N(Cc1ccccc1)/N=C/c1cnc2ccc(Br)cn12 [J30]
348	1880	32	4			3.8				CCN(/N=C/c1cnc2ccc(Br)cn12)S(=O)(=O)c1cc([N+](=O)[O-])c(NCC(=O)O)cc1C [J159]
485	2970	1750	309		6 to 49 fold					Cc1ccc([N+](=O)[O-])cc1S(=O)(=O)N(CC(C)C)/N=C/c1cnc2ccc(Br)cn12 [J46]
1960	12800	1150	19	retained nanomolar potencies			100	~ 670 fold	60	CCN(/N=C/c1cnc2ccc(Br)cn12)S(=O)(=O)c1cc([N+](=O)[O-])c(NCC(=O)NC(Cc2ccccc2)C(=O)O)cc1C (stereo not drawn) [J171]
169	149	192	25	did not increase potency						Cc1ccc([N+](=O)[O-])cc1S(=O)(=O)N(CCC#N)/N=C/c1cnc2ccc(Br)cn12 [J47]
28000	21000	30000	4400	impaired potency						CCN(/N=C/c1cnc2ccc(Br)cn12)S(=O)(=O)c1cc(N)ccc1C [J44]
230	8200	140	11							CCN(/N=C/c1cnc2ccc(Br)cn12)S(=O)(=O)c1cc([N+](=O)[O-])c(NC(C)C(=O)O)cc1C (stereo not drawn) [J160]
363	1900	930	154	did not increase potency						CCOC(=O)CN(/N=C/c1cnc2ccc(Br)cn12)S(=O)(=O)c1cc([N+](=O)[O-])ccc1C [J43]
266	936	812	22	maintain potency and isoform selectivity						CCN(/N=C/c1cnc2ccc(Br)cn12)S(=O)(=O)c1cc([N+](=O)[O-])ccc1Cl [J101]
		75								Cc1ccc([N+](=O)[O-])cc1S(=O)(=O)N(C)/N=C/c1cnc2ccc(Br)cn12 [J27, N'-[(1E)-(6-Bromoimidazo [1,2-a]pyridin-3-yl)methylene]-N,2-dimethyl-5-nitrobenzenesulfonohydrazide hydrochloride, reference compound]
476	3060	801	55		greater than 3.6 fold					CCN(/N=C/c1cnc2ccc(Br)cn12)S(=O)(=O)c1cccc([N+](=O)[O-])c1 [J37]
38	600	1000	76	impaired potency						CCN(/N=C/c1cnc2ccc(Br)cn12)S(=O)(=O)c1cc(C(N)=O)ccc1Cl [J125]
3550	235000	253000	23200	impaired potency						CCN(/N=C/c1cnc2ccc(Br)cn12)S(=O)(=O)c1cc(S(C)(=O)=O)ccc1C [J41]
760	2420	3340	93		6 to 49 fold					Cc1ccc([N+](=O)[O-])cc1S(=O)(=O)N(/N=C/c1cnc2ccc(Br)cn12)C(C)C [J55]
53000	61000	180000	20000		> 1333 fold					CCN(/N=C/c1cnc2ccc(Br)cn12)S(=O)(=O)c1ccccc1C [J40]

SMILES	IC50 [1] [nM]	IC50 [2] [nM]	IC50 [3] [nM]	IC50 [4] [nM]	effect of substitution on PI3Kα potency/selectivity (in words) [4]	drop/decrease in inhibitory activity for PI3Kα ([4]; compared to J32)	increase of inhibitory activity for PI3Kα ([4]; compared to J32) [fold]	selectivity against PI3Kδ ([1]; relative to PI3Kα) [fold]	selectivity against PI3Kβ ([2]; relative to PI3Kα)	selectivity against PI3Kγ ([3]; relative to PI3Kα) [fold]
CCN(/N=C/c1cnc2ccc(Br)cn12)S(=O)(=O)c1cc([N+](=O)[O-])c(NCCOC)cc1C [J157]	430	3000	1000	24	did not impact the inhibitory activity for PI3Kα substantially					
CCN(/N=C/c1cnc2ccc(Br)cn12)S(=O)(=O)c1cc([N+](=O)[O-])c(O)cc1C [J129]	66	510	150	20	did not impact the inhibitory activity for PI3Kα substantially					
CCN(/N=C/c1cnc2ccc(Br)cn12)S(=O)(=O)c1cc([N+](=O)[O-])c(NCC(N)=O)cc1C [J163]	130	2100	74	14	did not impact the inhibitory activity for PI3Kα substantially					
CCN(/N=C/c1cnc2ccc(Br)cn12)S(=O)(=O)c1cc([N+](=O)[O-])c(NCC(=O)OC)cc1C [J161]	16000		940	33	did not impact the inhibitory activity for PI3Kα substantially					
CCN(/N=C/c1cnc2ccc(Br)cn12)S(=O)(=O)c1cc([N+](=O)[O-])c(F)cc1C [J120]	470	1900	1800	24	did not impact the inhibitory activity for PI3Kα substantially					
CCN(/N=C/c1cnc2ccc(Br)cn12)S(=O)(=O)c1cc([N+](=O)[O-])c(NCCOCCO)cc1C [J158]	440	3500	200	17	did not impact the inhibitory activity for PI3Kα substantially					
CCN(/N=C/c1cnc2ccc(Br)cn12)S(=O)(=O)c1cc([N+](=O)[O-])c(NCCO)cc1C [J162]	400	2400	210	25	did not impact the inhibitory activity for PI3Kα substantially					

Reference: publication PMC3004370, “PI3Kα Inhibitors That Inhibit Metastasis” (Oncotarget, 2010)
